Results published in ChEMBL document CHEMBL5329155, “Synthesis and pharmacological evaluation of 1,3-diaryl substituted pyrazole based (thio)urea derivatives as potent antimicrobial agents against multi-drug resistant Staphylococcus aureus and Mycobacterium tuberculosis” (RSC Med Chem, 2023).
≈ marks a conversion by molar mass, not a printed value.

What was measured:
Type in all cases: functional
[1] = tested on: Staphylococcus aureus; experiment: Antibacterial activity against Staphylococcus aureus ATCC 29213 assessed as inhibition of bacterial growth measured for 18 to 24 hrs by broth dilution method; conditions: time 18-24 hrs
[2] = tested on: Mycobacterium tuberculosis; experiment: Antimycobacterial activity against Mycobacterium tuberculosis H37Rv ATCC 27294 assessed as inhibition of bacterial growth incubated for 18 to 24 hrs by broth dilution method
[3] = tested on: Mycobacterium tuberculosis; experiment: Antimycobacterial activity against ethambutol-resisitant Mycobacterium tuberculosis ATCC 35837 assessed as inhibition of bacterial growth incubated for 18 to 24 hrs by broth dilution method; conditions: time 18-24 hrs
[4] = tested on: Mycobacterium tuberculosis; experiment: Antimycobacterial activity against streptomycin-resisitant Mycobacterium tuberculosis ATCC 35820 assessed as inhibition of bacterial growth incubated for 18 to 24 hrs by broth dilution method; conditions: time 18-24 hrs
[5] = tested on: Mycobacterium tuberculosis; experiment: Antimycobacterial activity against rifampicin-resisitant Mycobacterium tuberculosis ATCC 35838 assessed as inhibition of bacterial growth incubated for 18 to 24 hrs by broth dilution method; conditions: time 18-24 hrs
[6] = tested on: Mycobacterium tuberculosis; experiment: Antimycobacterial activity against isoniazid-resisitant Mycobacterium tuberculosis ATCC 35822 assessed as inhibition of bacterial growth incubated for 18 to 24 hrs by broth dilution method; conditions: time 18-24 hrs

Row | Structure (SMILES) | MIC [1] [µg/mL] | MIC [2] [µg/mL] | MIC [3] [µg/mL] | MIC [4] [µg/mL] | MIC [5] [µg/mL] | MIC [6] [µg/mL]
1 | COc1ccc(-c2cn(-c3ccc(NC(=O)NCc4ccccc4)cc3)nn2)cc1OC | > 64 | 16 (≈ 37.3 µM) | – | – | – | –
2 | O=C(Nc1ccc(-n2ccc(-c3ccc(Cl)cc3Cl)n2)cc1)Nc1ccc(F)cc1F | > 64 | > 64 | – | – | – | –
3 | O=C(NCc1ccccc1)Nc1ccc(-n2ccc(-c3cccnc3)n2)cc1 | > 64 | 8 (≈ 21.7 µM) | – | – | – | –
4 | COc1ccc(-c2ccn(-c3ccc(NC(=S)Nc4cccc(Cl)c4)cc3)n2)cc1OC | > 64 | 16 (≈ 34.4 µM) | – | – | – | –
5 | O=C(NCc1ccccc1)Nc1ccc(-n2ccc(-c3ccccc3)n2)cc1 | > 64 | > 64 | – | – | – | –
6 | COc1ccc(-c2ccn(-c3ccc(NC(=O)Nc4cc(Cl)ccc4Cl)cc3)n2)cc1OC | > 64 | > 64 | – | – | – | –
7 | COc1ccc(-c2ccn(-c3ccc(NC(=S)NC4CCCCC4)cc3)n2)cc1OC | > 64 | 16 (≈ 36.6 µM) | – | – | – | –
8 | COc1cc(-c2ccn(-c3ccc(NC(=O)Nc4ccc(Cl)c(Cl)c4)cc3)n2)cc(OC)c1OC | > 64 | > 64 | – | – | – | –
9 | COc1ccc(-c2ccn(-c3ccc(NC(=O)Nc4ccccc4C)cc3)n2)cc1OC | > 64 | 16 (≈ 37.3 µM) | – | – | – | –
10 | COc1ccc(-c2cn(-c3ccc(NC(=O)Nc4ccc(F)cc4F)cc3)nn2)cc1OC | > 64 | 8 (≈ 17.7 µM) | – | – | – | –
11 | CC[C@@H](CO)NCCN[C@@H](CC)CO [ETHAMBUTOL] | – | 2 (≈ 9.79 µM) | 32 (≈ 157 µM) | 2 (≈ 9.79 µM) | 2 (≈ 9.79 µM) | 4 (≈ 19.6 µM)
12 | O=C(Nc1ccc(-n2ccc(-c3ccccc3)n2)cc1)Nc1ccc(Cl)c(Cl)c1 | > 64 | 64 (≈ 151 µM) | – | – | – | –
13 | COc1ccc(-c2ccn(-c3ccc(NC(=O)Nc4ccc(Cl)c(C(F)(F)F)c4)cc3)n2)cc1OC | 2 (≈ 3.87 µM) | 4 (≈ 7.74 µM) | – | – | – | –
14 | COc1ccc(-c2cn(-c3ccc(NC(=O)Nc4ccc(Cl)c(Cl)c4)cc3)nn2)cc1OC | 4 (≈ 8.26 µM) | > 64 | – | – | – | –
15 | Cc1ccc(-c2ccn(-c3ccc(NC(=O)Nc4ccc(F)cc4F)cc3)n2)cc1 | > 64 | > 64 | – | – | – | –
16 | COc1ccc(-c2ccn(-c3ccc(NC(=S)Nc4ccc(Cl)cc4)cc3)n2)cc1OC | > 64 | 8 (≈ 17.2 µM) | – | – | – | –

Row | Structure (SMILES) | MIC [1] [µg/mL] | MIC [2] [µg/mL] | MIC [3] [µg/mL] | MIC [4] [µg/mL] | MIC [5] [µg/mL] | MIC [6] [µg/mL]
17 | O=C(Nc1ccc(-n2ccc(-c3ccccc3)n2)cc1)Nc1ccc(F)cc1F | > 64 | > 64 | – | – | – | –
18 | COc1ccc(-c2ccn(-c3ccc(NC(=O)Nc4ccc(Cl)c(Cl)c4)cc3)n2)cc1 | > 64 | 32 (≈ 70.6 µM) | – | – | – | –
19 | COc1ccc(-c2ccn(-c3ccc(NC(=O)NCc4ccccc4)cc3)n2)cc1 | > 64 | > 64 | – | – | – | –
20 | COc1ccc(NC(=S)Nc2ccc(-n3ccc(-c4ccc(OC)c(OC)c4)n3)cc2)cc1 | > 64 | 8 (≈ 17.4 µM) | – | – | – | –
21 | CO[C@H]1/C=C/O[C@@]2(C)Oc3c(C)c(O)c4c(O)c(c(/C=N/N5CCN(C)CC5)c(O)c4c3C2=O)NC(=O)/C(C)=C\C=C\[C@H](C)[C@H](O)[C@@H](C)[C@@H](O)[C@@H](C)[C@H](OC(C)=O)[C@@H]1C [RIFAMPIN] | – | 0.06 (≈ 0.0729 µM) | 0.03 (≈ 0.0365 µM) | 0.03 (≈ 0.0365 µM) | 64 (≈ 77.8 µM) | 0.03 (≈ 0.0365 µM)
22 | COc1ccc(-c2ccn(-c3ccc(NC(=O)Nc4ccc(F)cc4F)cc3)n2)cc1 | > 64 | 8 (≈ 19 µM) | – | – | – | –
23 | COc1ccc(-c2ccn(-c3ccc(NC(=O)Nc4cccc(Cl)c4)cc3)n2)cc1OC | 2 (≈ 4.46 µM) | 16 (≈ 35.6 µM) | – | – | – | –
24 | O=C(Nc1ccc(-n2ccc(-c3ccc(Cl)cc3)n2)cc1)Nc1ccc(Cl)c(Cl)c1 | > 64 | 8 (≈ 17.5 µM) | – | – | – | –
25 | CN[C@@H]1[C@H](O[C@H]2[C@H](O[C@H]3[C@H](O)[C@@H](O)[C@H](N=C(N)N)[C@@H](O)[C@@H]3N=C(N)N)O[C@@H](C)[C@]2(O)C=O)O[C@@H](CO)[C@H](O)[C@H]1O [STREPTOMYCIN] | – | 1 (≈ 1.72 µM) | 1 (≈ 1.72 µM) | > 64 | 1 (≈ 1.72 µM) | 1 (≈ 1.72 µM)
26 | CCCCCCCNC(=S)Nc1ccc(-n2ccc(-c3ccc(OC)c(OC)c3)n2)cc1 | > 64 | 4 (≈ 8.84 µM) | – | – | – | –
27 | COc1ccc(-c2ccn(-c3ccc(NC(=S)Nc4ccc(C#N)cc4)cc3)n2)cc1OC | > 64 | 32 (≈ 70.2 µM) | – | – | – | –
28 | COc1ccc(-c2ccn(-c3ccc(NC(=S)Nc4ccc(F)cc4F)cc3)n2)cc1OC | > 64 | 16 (≈ 34.3 µM) | – | – | – | –
29 | COc1ccc(-c2ccn(-c3ccc(NC(=S)Nc4ccc(C(F)(F)F)cc4)cc3)n2)cc1OC | 2 (≈ 4.01 µM) | 2 (≈ 4.01 µM) | – | – | – | –
30 | COc1ccc(-c2ccn(-c3ccc(NC(=O)Nc4cccc(Cl)c4Cl)cc3)n2)cc1OC | > 64 | 16 (≈ 33.1 µM) | – | – | – | –
31 | COc1cccc(NC(=S)Nc2ccc(-n3ccc(-c4ccc(OC)c(OC)c4)n3)cc2)c1 | > 64 | 16 (≈ 34.7 µM) | – | – | – | –
32 | COc1ccc(-c2ccn(-c3ccc(NC(=S)Nc4ccc(F)cc4)cc3)n2)cc1OC | > 64 | 2 (≈ 4.46 µM) | – | – | – | –
